What all share (assay type): cell-based
Test [1] concerns S. aureus NB01006-AVR005 (gyrA S84L, grlA S80F, grlB E471K). Nature of the test: microbe, parasite or virus in culture. As to conditions: Staphylococcus aureus, 20 h, read-out: Antibacterial activity (MIC) NB01006-AVR005.
Test [2] relates to P. aeruginosa NB52023 (efflux deficient K1542, ΔmexX ΔmexB). Nature of the test: microbe, parasite or virus in culture. As to conditions: Pseudomonas aeruginosa, 20 h, read-out: Antibacterial activity (MIC) NB52023.
Test [3] relates to P. aeruginosa NB52019 (wild-type PAO1). Nature of the test: MIC, broth microdilution (CLSI). In general terms: In broth dilution the organism is exposed to a series of concentrations in liquid medium.
Test [4] concerns P. aeruginosa NB52023-CDK0006 (gyrA T83I, parC S87L). The test is described as follows: microbe, parasite or virus in culture. As to conditions: Pseudomonas aeruginosa, 20 h, read-out: Antibacterial activity (MIC) NB52023-CDK0006.
In test [5] the test system is S. aureus ATCC 29213 (NB01001). Nature of the test: MIC, broth microdilution (CLSI). As to conditions: Staphylococcus aureus, read-out: Antibacterial activity (MIC) NB01001.
Test [6] concerns E. coli ATCC 25922 (NB27001). The test is described as follows: MIC, broth microdilution (CLSI). As to conditions: Escherichia coli, read-out: Antibacterial activity (MIC) NB27001.
In test [7] the test system is E. coli NB27177 (efflux deficient CGSC 11430, ΔtolC732::kan). The test is described as follows: microbe, parasite or virus in culture. As to conditions: Escherichia coli, 20 h, read-out: Antibacterial activity (MIC) NB27177.
Where [8] appears, read: Pseudomonas aeruginosa, PAO1, 20 h; read-out: Antibacterial activity (MIC) NB52019.
Where [9] appears, read: ATCC29213, S. aureus ATCC 29213, 35° C., 20 hours.
The mark [10] stands for this setting: ATCC25922, E. coli ATCC 25922, 35° C., 20 hours.
The mark [11] stands for this setting: Pseudomonas aeruginosa; P. aeruginosa wild-type PAO1; 35° C., 20 hours; read-out: Antibacterial activity (MIC) NB52019.

Values after ≈ are worked out from the molar mass of the structure shown. Structures can show the parent of a compound that is named as a salt. Where two headings read alike, the source gives them in different places.

`Cc1c(N2CCC(F)(CN)C2)c(F)c(F)c2c(CN)cc(=O)n(C3CC3)c12` (stereo not shown) [Example 83, 4-(aminomethyl)-7-(3-(aminomethyl)-3-fluoropyrrolidin-1-yl)-1-cyclopropyl-5,6-difluoro-8-methylquinolin-2(1H)-one TFA salt]: the MIC is 0.125 µg/mL in test [1]; 0.25 µg/mL in test [2]; 2 µg/mL in test [3] (setting [8]); 0.5 µg/mL in test [4]; 0.125 µg/mL in test [5] (setting [9]); 0.125 µg/mL in test [6] (setting [10]). The MIC in test [7] is less than 0.03 µg/mL.

Turning to `Cc1c(N2CC[C@@H]([C@H](C)N)C2)c(F)cc2c(C3=NOS(=O)N3)cc(=O)n(C3CC3)c12` (stereo partly drawn) [Example 41, 7-((R)-3-((S)-1-aminoethyl)pyrrolidin-1-yl)-1-cyclopropyl-6-fluoro-8-methyl-4-(2-oxido-3H-1,2,3,5-oxathiadiazol-4-yl)quinolin-2(1H)-one], the MIC in test [1] amounted to 0.5 µg/mL (≈ 1.15 µM); in test [2] it was 4 µg/mL (≈ 9.23 µM); in test [3] (setting [8]), 16 µg/mL (≈ 36.9 µM); in test [4], 8 µg/mL (≈ 18.5 µM); in test [5] (setting [9]), 0.5 µg/mL (≈ 1.15 µM); in test [6] (setting [10]) it was 4 µg/mL (≈ 9.23 µM). Moreover, the MIC in test [7] was found to be 0.125 µg/mL (≈ 0.288 µM).

`COc1c(C)c(=O)n(C2CC2)c2c(C)c(-c3ccc(N)nc3)ccc12` [Example 70, 7-(6-aminopyridin-3-yl)-1-cyclopropyl-4-methoxy-3,8-dimethylquinolin-2(1H)-one]: the MIC in test [1] is 4 µg/mL (≈ 11.9 µM); in test [2], greater than 32 µg/mL; in test [3] (setting [8]), 32 µg/mL (≈ 95.4 µM); in test [4] it was greater than 32 µg/mL; in test [5] (setting [9]), 16 µg/mL (≈ 47.7 µM); in test [6] (setting [10]) it was 32 µg/mL (≈ 95.4 µM). Further, in test [7], the MIC worked out at 2 µg/mL (≈ 5.96 µM).

As for `COc1cc2ccc(N3CC[C@@H]([C@H](C)N)C3)c(C)c2n(C2CC2)c1=O` [Example 80, 7-((R)-3-((S)-1-aminoethyl)pyrrolidin-1-yl)-1-cyclopropyl-3-methoxy-8-methylquinolin-2(1H)-one TFA salt], the MIC in test [1] was 2 µg/mL; in test [2], greater than 32 µg/mL; in test [3] (setting [8]), greater than 32 µg/mL; in test [4], greater than 32 µg/mL; in test [5] (setting [9]), 1 µg/mL; in test [6] (setting [10]), 32 µg/mL. Also, in test [7], the MIC is 2 µg/mL.

For the compound `COc1cc2ccc(-c3ccc(N)nc3)c(C)c2n(C2CC2)c1=O` [Example 78, 7-(6-Aminopyridin-3-yl)-1-cyclopropyl-3-methoxy-8-methylquinolin-2(1H)-one TFA salt], the MIC in test [1] was 16 µg/mL; in test [2] it was greater than 32 µg/mL; in test [3] (setting [8]) it was greater than 32 µg/mL; in test [4], greater than 32 µg/mL; in test [5] (setting [9]), 8 µg/mL; in test [6] (setting [10]) it was 32 µg/mL. The MIC in test [7] was 1 µg/mL.

As for `Cc1c(N2CC[C@@H]([C@H](C)N)C2)c(F)cc2c(OCCN)cc(=O)n(C3CC3)c12` [Example 51, 4-(2-aminoethoxy)-7-((R)-3-((S)-1-aminoethyl)pyrrolidin-1-yl)-1-cyclopropyl-6-fluoro-8-methylquinolin-2(1H)-one], the MIC in test [1] is 0.5 µg/mL (≈ 1.29 µM); in test [2] it was 2 µg/mL (≈ 5.15 µM); in test [3] (setting [8]), 4 µg/mL (≈ 10.3 µM); in test [4], 2 µg/mL (≈ 5.15 µM); in test [5] (setting [9]) it was 0.5 µg/mL (≈ 1.29 µM); in test [6] (setting [10]), 2 µg/mL (≈ 5.15 µM). Moreover, the MIC in test [7] amounted to 0.06 µg/mL (≈ 0.154 µM).

For `Cc1c(N2CCC(CN)C2)c(F)cc2c(CNCCN)cc(=O)n(C3CC3)c12.O=C(O)C(F)(F)F` (stereo not shown) [Example 87, 4-(((2-aminoethyl)amino)methyl)-7-(3-(aminomethyl)pyrrolidin-1-yl)-1-cyclopropyl-6-fluoro-8-methylquinolin-2(1H)-one TFA salt], the MIC in test [1] came to 0.25 µg/mL; in test [2] it was 4 µg/mL; in test [3] (setting [11]), 16 µg/mL; in test [4], 8 µg/mL; in test [5] (setting [9]), 0.5 µg/mL; in test [6] (setting [10]) it was 8 µg/mL. In test [7], the MIC was found to be 0.5 µg/mL.

Take `COCc1cc(=O)n(C2CC2)c2c(C)c(N3CC[C@@H]([C@H](C)N)C3)c(F)cc12` [Example 48, 7-((R)-3-((S)-1-aminoethyl)pyrrolidin-1-yl)-1-cyclopropyl-6-fluoro-4-(methoxymethyl)-8-methylquinolin-2(1H)-one]: the MIC in test [1] was determined as 0.125 µg/mL (≈ 0.335 µM); in test [2], 16 µg/mL (≈ 42.8 µM); in test [3] (setting [8]) it was 32 µg/mL (≈ 85.7 µM); in test [4] it was 16 µg/mL (≈ 42.8 µM); in test [5] (setting [9]), 0.125 µg/mL (≈ 0.335 µM); in test [6] (setting [10]), 8 µg/mL (≈ 21.4 µM). The MIC in test [7] is 0.06 µg/mL (≈ 0.161 µM).

As to `Cc1c(N2CC[C@@H]([C@H](C)N)C2)c(F)cc2c(OCCC/C(N)=N\O)cc(=O)n(C3CC3)c12` [Example 58, 4-((7-((R)-3-((S)-1-aminoethyl)pyrrolidin-1-yl)-1-cyclopropyl-6-fluoro-8-methyl-2-oxo-1,2-dihydroquinolin-4-yl)oxy)-N′-hydroxybutanimidamide], the MIC in test [1] is 2 µg/mL (≈ 4.49 µM); in test [2] it was 32 µg/mL (≈ 71.8 µM); in test [3] (setting [8]) it was greater than 32 µg/mL; in test [4] it was 32 µg/mL (≈ 71.8 µM); in test [5] (setting [9]), 4 µg/mL (≈ 8.98 µM); in test [6] (setting [10]) it was 32 µg/mL (≈ 71.8 µM). The MIC in test [7] turned out to be 1 µg/mL (≈ 2.24 µM).

Regarding `Cc1c(N2CC[C@@H]([C@H](C)N)C2)c(F)cc2c(OCCN(C)C)cc(=O)n(C3CC3)c12` [Example 49, 7-((R)-3-((S)-1-aminoethyl)pyrrolidin-1-yl)-1-cyclopropyl-4-(2-(dimethylamino)ethoxy)-6-fluoro-8-methylquinolin-2(1H)-one], the MIC was 0.25 µg/mL (≈ 0.6 µM) in test [1]; 4 µg/mL (≈ 9.6 µM) in test [2]; 8 µg/mL (≈ 19.2 µM) in test [3] (Pseudomonas aeruginosa, PAO1, 20 h, read-out: Antibacterial activity (MIC) NB52019); 8 µg/mL (≈ 19.2 µM) in test [4]; 0.125 µg/mL (≈ 0.3 µM) in test [5] (ATCC29213, 20 h); 1 µg/mL (≈ 2.4 µM) in test [6] (ATCC25922, 20 h). The MIC in test [7] was 0.06 µg/mL (≈ 0.144 µM).

As for `Cc1c(N2CC[C@@H]([C@H](C)N)C2)ccc2c(OCc3ccccc3)cc(=O)n(C3CC3)c12` [Example 71, 7-((R)-3-((S)-1-aminoethyl)pyrrolidin-1-yl)-4-(benzyloxy)-1-cyclopropyl-8-methylquinolin-2(1H)-one TFA salt], the MIC in test [1] is 6 µg/mL; in test [2] it was greater than 32 µg/mL; in test [3] (setting [8]) it was greater than 32 µg/mL; in test [4] it was greater than 32 µg/mL; in test [5] (setting [9]), 2 µg/mL; in test [6] (setting [10]) it was 32 µg/mL. Moreover, the MIC in test [7] was found to be 6 µg/mL.

As to `Cc1c(C#N)c2cc(F)c(N3CC[C@@H]([C@H](C)N)C3)c(C)c2n(C2CC2)c1=O` [Example 28, 7-((R)-3-((S)-1-aminoethyl)pyrrolidin-1-yl)-1-cyclopropyl-6-fluoro-3,8-dimethyl-2-oxo-1,2-dihydroquinoline-4-carbonitrile], the MIC in test [1] is less than 0.03 µg/mL; in test [2], 2 µg/mL (≈ 5.43 µM); in test [3] (setting [8]), 16 µg/mL (≈ 43.4 µM); in test [4], 0.5 µg/mL (≈ 1.36 µM); in test [5] (setting [9]) it was less than 0.03 µg/mL; in test [6] (setting [10]), 2 µg/mL (≈ 5.43 µM). Also, the MIC in test [7] is less than 0.03 µg/mL.

For the compound `Cc1c(F)c(N2CCC(CN)C2)c(C)c2c1ccc(=O)n2C1CC1.O=C(O)C(F)(F)F` (stereo not shown) [Example 101, 7-(3-(aminomethyl)pyrrolidin-1-yl)-1-cyclopropyl-6-fluoro-5,8-dimethylquinolin-2(1H)-one TFA salt], the MIC is 0.125 µg/mL in test [1]; 8 µg/mL in test [2]; greater than 32 µg/mL in test [3] (setting [11]); 16 µg/mL in test [4]; 0.5 µg/mL in test [5] (setting [9]); 8 µg/mL in test [6] (setting [10]). Further, the MIC in test [7] was determined as 0.125 µg/mL.

As to `Cc1c(N2CC[C@@H]([C@H](C)N)C2)c(F)cc2c(OCCNC(=N)N)cc(=O)n(C3CC3)c12` [Example 53, 1-(2-((7-((R)-3-((S)-1-aminoethyl)pyrrolidin-1-yl)-1-cyclopropyl-6-fluoro-8-methyl-2-oxo-1,2-dihydroquinolin-4-yl)oxy)ethyl)guanidine], the MIC in test [1] amounted to 0.5 µg/mL (≈ 1.16 µM); in test [2] it was 4 µg/mL (≈ 9.29 µM); in test [3] (setting [8]) it was 16 µg/mL (≈ 37.2 µM); in test [4] it was 4 µg/mL (≈ 9.29 µM); in test [5] (setting [9]), 0.5 µg/mL (≈ 1.16 µM); in test [6] (setting [10]), 4 µg/mL (≈ 9.29 µM). Further, the MIC in test [7] amounted to 0.125 µg/mL (≈ 0.29 µM).

On to `Cc1c(N2CCNCC2)c(F)cc2c(C#N)cc(=O)n(C3CC3)c12` [Example 32, 1-cyclopropyl-6-fluoro-8-methyl-2-oxo-7-(piperazin-1-yl)-1,2-dihydroquinoline-4-carbonitrile], for which the MIC in test [1] was found to be 2 µg/mL (≈ 6.13 µM); in test [2], 16 µg/mL (≈ 49 µM); in test [3] (setting [11]) it was 32 µg/mL (≈ 98 µM); in test [4] it was 32 µg/mL (≈ 98 µM); in test [5] (setting [9]), 4 µg/mL (≈ 12.3 µM); in test [6] (setting [10]), 4 µg/mL (≈ 12.3 µM). Further, the MIC in test [7] stood at 0.125 µg/mL (≈ 0.383 µM).

On to `Cc1c(N2CC[C@H](N)C2)c(F)c(F)c2c(CN)cc(=O)n(C3CC3)c12` [Example 83.6, (S)-4-(aminomethyl)-7-(3-aminopyrrolidin-1-yl)-1-cyclopropyl-5,6-difluoro-8-methylquinolin-2(1H)-one], for which the MIC in test [1] stood at 2 µg/mL (≈ 5.74 µM); in test [2], 0.25 µg/mL (≈ 0.718 µM); in test [3] (setting [8]), 4 µg/mL (≈ 11.5 µM); in test [4], 0.5 µg/mL (≈ 1.44 µM); in test [5] (setting [9]), 1 µg/mL (≈ 2.87 µM); in test [6] (setting [10]) it was 0.5 µg/mL (≈ 1.44 µM). Also, the MIC in test [7] was found to be 0.06 µg/mL (≈ 0.172 µM).

The values are drawn from US10160726B2, “Quinolone derivatives as antibacterials” (priority 2014, dated 2018).
